Measurements from patent publication US8362004B2, “Piperazine analogs as broad-spectrum influenza antivirals” (priority 2010, dated 2013).
pEC50: −log10 of the molar value. Where two headings read alike, the source gives them in different places.

Key:
[1] = system: influenza A/WSN/33; test: Antiviral assay in MDCK cells, viral neuraminidase (MUNANA) readout, A/H1N1/WSN; format: cell-based; conditions: read-out: A/H1N1/WSN Activity
[2] = system: Influenza A/Solomon Islands/3/06; test: Antiviral assay in MDCK cells, viral neuraminidase (MUNANA) readout, A/H1N1/Solomon Islands; format: cell-based; conditions: read-out: A/H1N1/Solomon Islands Activity
[3] = system: influenza A/Brisbane/10/2007; test: Antiviral assay in MDCK cells, viral neuraminidase (MUNANA) readout, A/H3N2/Brisbane; format: cell-based; conditions: read-out: A/H3N2/Brisbane Activity
[4] = system: A/H5N1/Duck_MN; test: microbe, parasite or virus in culture; format: cell-based, influenza A
[5] = system: A/H5N1/Duck_PA; test: microbe, parasite or virus in culture; format: cell-based, influenza A
[6] = system: A/H5N1/Gull_PA; test: microbe, parasite or virus in culture; format: cell-based, influenza A
[7] = MDCK cells, MOI 0.001, 48 hrs post infection, viral NA activity

| Compound | pEC50 [1, 7] | pEC50 [2, 7] | pEC50 [3, 7] | pEC50 ([4]; read-out: A/H5N1/Duck_MN) | pEC50 ([5]; read-out: A/H5N1/Duck_PA) | pEC50 ([6]; read-out: A/H5N1/Gull_PA) | pEC50 ([1]; Influenza A virus, MDCK, 48 h) | pEC50 ([2]; Influenza A virus, H1N1, MDCK, 48 h) | pEC50 ([3]; Influenza A virus, H3N2, MDCK, 48 h) | pEC50 ([4]; Influenza A virus, H5N1, read-out: A/H5N1/Duck_MN) | pEC50 ([5]; Influenza A virus, H5N1, read-out: A/H5N1/Duck_PA) | pEC50 ([6]; Influenza A virus, H5N1, read-out: A/H5N1/Gull_PA) |
| --- | --- | --- | --- | --- | --- | --- | --- | --- | --- | --- | --- | --- |
| COc1ccccc1-c1noc(C)c1C(=O)N1CCN(c2cc(NC(=O)c3nccs3)c([N+](=O)[O-])cc2Cl)CC1 [Example 5] | > 7.00 | > 7.00 | > 6.00 | > 7.00 | > 7.00 | > 7.00 | – | – | – | – | – | – |
| COc1ccccc1-c1nnn(C)c1C(=O)N1CCN(c2cc(NC(=O)c3ccc(N4CCOC4=O)cc3)c([N+](=O)[O-])cc2Cl)CC1 [Example 93] | > 7.00 | > 7.00 | > 6.00 | > 6.00 | > 6.00 | > 7.00 | – | – | – | – | – | – |
| COc1ccccc1-c1noc(C)c1C(=O)N1CCN(c2cc(NC(=O)c3ccc(N(C)C)cc3)c([N+](=O)[O-])cc2Cl)CC1 [Example 14, N-(4-chloro-5-(4-(3-(2-methoxyphenyl)-5-methylisoxazole-4-carbonyl)piperazin-1-yl)-2-nitrophenyl)-4-(dimethylamino)benzamide] | – | – | – | – | – | – | > 7.00 | > 7.00 | > 7.00 | > 7.00 | > 6.00 | > 7.00 |
